According to ChEMBL document CHEMBL1201862, “PubChem BioAssay data set” (2004):
Active and inactive are the calls of the source.

Assays:
[1] = Trypanosoma cruzi growth suppression in host cells – NIH3T3 host cells, beta-gal luminescence, confirmation (AID 2044); assay type: functional, cell-based;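 note: intracellular parasites grown in NIH/3T3 mouse fibroblasts as host cells; luminescent beta-galactosidase reporter signal from transgenic T. cruzi replicating inside host cells; inhibitors lower the luminescence signal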
[2] = NIH3T3 cell viability loss – ATP luminescence, mouse fibroblasts, counter-screen, dose response (AID 2010); assay type: functional, cell-based;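 note: cells exposed to compound for about 90 hours before reading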
[3] = system: Saccharomyces cerevisiae; assay: S. cerevisiae Caspase-1/ASC signal blockers IC50, NALP1 inhibitor project selectivity test (AID 488863); assay type: functional, organism-based
[4] = molecular target: T1, NACHT, LRR and PYD domains-containing protein 1 (Homo sapiens, UniProt Q9C000); assay: NALP1 inhibitors in yeast, dose response, luminescent (AID 488860); assay type: functional
T1 sequence (Q9C000 whole entry): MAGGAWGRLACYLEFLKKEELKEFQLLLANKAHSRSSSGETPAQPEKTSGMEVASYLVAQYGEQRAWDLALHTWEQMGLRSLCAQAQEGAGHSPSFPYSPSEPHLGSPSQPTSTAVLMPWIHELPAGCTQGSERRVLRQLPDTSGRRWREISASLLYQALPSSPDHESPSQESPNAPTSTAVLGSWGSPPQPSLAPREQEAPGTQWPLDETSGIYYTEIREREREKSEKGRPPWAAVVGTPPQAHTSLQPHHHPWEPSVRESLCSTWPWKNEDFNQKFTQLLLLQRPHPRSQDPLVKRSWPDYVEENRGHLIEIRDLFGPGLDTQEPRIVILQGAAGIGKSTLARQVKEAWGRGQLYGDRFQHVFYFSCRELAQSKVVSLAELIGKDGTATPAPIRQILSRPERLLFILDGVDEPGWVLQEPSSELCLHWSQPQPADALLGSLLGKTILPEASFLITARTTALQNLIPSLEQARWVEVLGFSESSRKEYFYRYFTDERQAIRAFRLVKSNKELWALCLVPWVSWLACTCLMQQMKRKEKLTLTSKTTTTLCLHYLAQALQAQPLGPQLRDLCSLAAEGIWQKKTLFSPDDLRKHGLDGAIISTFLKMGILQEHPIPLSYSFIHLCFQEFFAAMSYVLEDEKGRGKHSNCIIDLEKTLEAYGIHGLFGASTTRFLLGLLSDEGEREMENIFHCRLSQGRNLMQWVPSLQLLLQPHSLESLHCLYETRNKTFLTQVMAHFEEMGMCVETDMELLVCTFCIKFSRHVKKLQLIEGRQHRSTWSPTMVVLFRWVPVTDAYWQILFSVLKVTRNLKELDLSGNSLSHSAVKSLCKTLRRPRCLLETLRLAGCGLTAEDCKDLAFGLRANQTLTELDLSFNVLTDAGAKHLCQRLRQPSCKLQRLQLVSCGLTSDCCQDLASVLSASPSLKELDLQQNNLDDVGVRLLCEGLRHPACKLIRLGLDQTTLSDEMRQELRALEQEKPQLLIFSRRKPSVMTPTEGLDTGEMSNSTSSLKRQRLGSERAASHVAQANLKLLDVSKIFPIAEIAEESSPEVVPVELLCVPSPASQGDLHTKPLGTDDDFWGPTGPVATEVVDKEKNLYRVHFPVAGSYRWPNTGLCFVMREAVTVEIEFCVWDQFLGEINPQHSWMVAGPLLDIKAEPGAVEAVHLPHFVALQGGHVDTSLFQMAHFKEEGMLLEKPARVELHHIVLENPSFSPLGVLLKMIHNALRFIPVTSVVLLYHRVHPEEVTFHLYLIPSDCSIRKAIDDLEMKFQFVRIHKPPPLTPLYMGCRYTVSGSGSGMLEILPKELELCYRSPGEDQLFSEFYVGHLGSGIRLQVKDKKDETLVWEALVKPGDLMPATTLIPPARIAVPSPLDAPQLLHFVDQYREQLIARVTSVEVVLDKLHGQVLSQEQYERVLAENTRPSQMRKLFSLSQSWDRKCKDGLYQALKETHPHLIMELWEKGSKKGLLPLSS

[5] = molecular target: Peroxisome proliferator-activated receptor gamma/Nuclear receptor coactivator 2 (Homo sapiens, UniProt P37231); assay type: functional;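 note: agonist potency for raising coactivator recruitment to the receptor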
Sequence of Peroxisome proliferator-activated receptor gamma/Nuclear receptor coactivator 2 (P37231 whole entry): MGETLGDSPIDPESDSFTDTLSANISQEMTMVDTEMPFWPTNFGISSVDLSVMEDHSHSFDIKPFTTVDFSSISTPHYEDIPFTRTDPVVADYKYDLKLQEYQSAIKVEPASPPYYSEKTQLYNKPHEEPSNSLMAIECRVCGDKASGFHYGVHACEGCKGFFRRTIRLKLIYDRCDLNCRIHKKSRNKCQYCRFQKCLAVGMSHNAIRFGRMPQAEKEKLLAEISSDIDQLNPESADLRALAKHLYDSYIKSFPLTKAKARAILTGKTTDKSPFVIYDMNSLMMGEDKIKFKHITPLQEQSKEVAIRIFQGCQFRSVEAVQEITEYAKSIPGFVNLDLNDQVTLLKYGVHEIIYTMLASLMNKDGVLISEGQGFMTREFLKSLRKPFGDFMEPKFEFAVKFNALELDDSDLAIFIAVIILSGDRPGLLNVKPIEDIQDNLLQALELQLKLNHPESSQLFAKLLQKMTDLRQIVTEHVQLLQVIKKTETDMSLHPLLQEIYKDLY
Sequence of Peroxisome proliferator-activated receptor gamma/Nuclear receptor coactivator 2 (Q15596 whole entry, further chain): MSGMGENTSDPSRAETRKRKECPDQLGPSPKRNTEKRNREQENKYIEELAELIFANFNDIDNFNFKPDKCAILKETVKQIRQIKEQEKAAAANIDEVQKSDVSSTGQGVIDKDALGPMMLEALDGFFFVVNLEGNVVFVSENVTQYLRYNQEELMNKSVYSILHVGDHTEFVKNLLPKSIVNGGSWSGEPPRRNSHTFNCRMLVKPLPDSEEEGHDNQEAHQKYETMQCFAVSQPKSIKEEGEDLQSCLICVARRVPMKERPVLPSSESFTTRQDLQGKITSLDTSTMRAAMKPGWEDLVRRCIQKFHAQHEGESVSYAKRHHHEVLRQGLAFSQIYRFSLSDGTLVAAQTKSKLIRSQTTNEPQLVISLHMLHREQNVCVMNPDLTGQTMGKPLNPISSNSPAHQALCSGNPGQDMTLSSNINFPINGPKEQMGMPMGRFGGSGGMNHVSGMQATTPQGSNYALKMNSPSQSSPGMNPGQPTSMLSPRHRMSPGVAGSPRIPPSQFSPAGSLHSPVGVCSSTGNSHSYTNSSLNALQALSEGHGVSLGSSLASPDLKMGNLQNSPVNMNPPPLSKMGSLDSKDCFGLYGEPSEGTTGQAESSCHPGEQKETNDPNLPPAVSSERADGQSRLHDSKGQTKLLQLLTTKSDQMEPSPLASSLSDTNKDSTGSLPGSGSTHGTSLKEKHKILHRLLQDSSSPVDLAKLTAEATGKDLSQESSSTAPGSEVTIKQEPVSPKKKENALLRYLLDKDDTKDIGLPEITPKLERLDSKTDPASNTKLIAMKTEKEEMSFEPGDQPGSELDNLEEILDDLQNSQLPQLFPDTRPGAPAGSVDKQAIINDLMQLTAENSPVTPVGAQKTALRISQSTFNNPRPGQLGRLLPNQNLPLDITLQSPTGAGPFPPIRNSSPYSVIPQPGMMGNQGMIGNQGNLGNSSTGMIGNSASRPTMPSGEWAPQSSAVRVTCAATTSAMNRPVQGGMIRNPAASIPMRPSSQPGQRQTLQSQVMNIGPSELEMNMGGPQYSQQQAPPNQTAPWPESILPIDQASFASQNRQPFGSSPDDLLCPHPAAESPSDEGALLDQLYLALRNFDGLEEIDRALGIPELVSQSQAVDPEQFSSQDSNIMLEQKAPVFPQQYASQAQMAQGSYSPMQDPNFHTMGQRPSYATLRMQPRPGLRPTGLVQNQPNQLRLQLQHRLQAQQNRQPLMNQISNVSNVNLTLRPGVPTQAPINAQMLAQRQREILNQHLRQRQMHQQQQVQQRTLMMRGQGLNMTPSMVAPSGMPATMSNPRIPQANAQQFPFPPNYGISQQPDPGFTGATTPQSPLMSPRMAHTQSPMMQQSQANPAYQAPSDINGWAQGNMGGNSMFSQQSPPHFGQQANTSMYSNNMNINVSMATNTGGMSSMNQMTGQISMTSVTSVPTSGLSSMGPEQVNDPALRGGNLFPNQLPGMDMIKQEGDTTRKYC

[6] = molecular target: Peroxisome proliferator-activated receptor gamma/Nuclear receptor coactivator 1 (Homo sapiens, UniProt P37231); assay type: functional;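 note: agonist potency as compounds enhance coactivator SRC-1 recruitment to PPARgamma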
[7] = molecular target: Peroxisome proliferator-activated receptor gamma/Nuclear receptor coactivator 3 (Homo sapiens, UniProt P37231); assay type: functional;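 note: agonist potency for raising coactivator recruitment to the receptor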
[8] = molecular target: Glyceraldehyde-3-phosphate dehydrogenase (Homo sapiens, UniProt P04406)
Sequence of Glyceraldehyde-3-phosphate dehydrogenase (P04406 whole entry): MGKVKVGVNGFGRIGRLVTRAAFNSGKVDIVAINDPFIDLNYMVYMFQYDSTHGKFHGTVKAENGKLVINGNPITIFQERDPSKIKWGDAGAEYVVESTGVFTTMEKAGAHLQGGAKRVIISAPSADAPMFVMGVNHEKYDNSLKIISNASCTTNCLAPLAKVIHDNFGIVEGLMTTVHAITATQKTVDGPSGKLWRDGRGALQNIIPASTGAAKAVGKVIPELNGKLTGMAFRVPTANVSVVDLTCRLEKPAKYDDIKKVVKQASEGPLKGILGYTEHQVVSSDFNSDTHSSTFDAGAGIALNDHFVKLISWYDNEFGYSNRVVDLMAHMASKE

[9] = molecular target: T2, Mucolipin-3 (Homo sapiens, UniProt Q8TDD5); assay: Dose response cell-based high-throughput screening assay for agonists of the transient receptor potential channel ML3 (TRPML3). [Related pubchem assays: 1526, 1424, 1448 ]; assay type: functional
T2 sequence (Q8TDD5 whole entry): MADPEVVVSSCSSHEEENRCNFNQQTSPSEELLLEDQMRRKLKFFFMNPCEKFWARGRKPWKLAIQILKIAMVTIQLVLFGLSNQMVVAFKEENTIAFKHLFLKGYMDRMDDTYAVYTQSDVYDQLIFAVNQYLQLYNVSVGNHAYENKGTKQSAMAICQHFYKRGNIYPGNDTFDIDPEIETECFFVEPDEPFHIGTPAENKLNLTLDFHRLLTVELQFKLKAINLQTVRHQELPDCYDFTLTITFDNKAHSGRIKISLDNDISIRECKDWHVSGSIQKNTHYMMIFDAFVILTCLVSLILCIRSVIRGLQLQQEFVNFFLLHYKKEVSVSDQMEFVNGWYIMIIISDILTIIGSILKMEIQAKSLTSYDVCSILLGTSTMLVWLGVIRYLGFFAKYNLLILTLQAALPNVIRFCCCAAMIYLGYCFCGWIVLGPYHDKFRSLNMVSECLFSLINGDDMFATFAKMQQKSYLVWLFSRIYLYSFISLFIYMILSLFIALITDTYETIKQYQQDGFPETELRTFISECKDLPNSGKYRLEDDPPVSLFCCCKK

[10] = molecular target: Ion channel NompC (Danio rerio, UniProt Q7T1G6); assay: Fluorescence counterscreen assay for TRPML3 agonists: dose response cell-based high-throughput screening assay to identify agonists of the transient receptor potential channel N1 (TRPN1). [Related pubchem assays: 1526, 1424, 1448 ]; assay type: functional
[11] = molecular target: T3, Cytochrome P450 1A2 (Homo sapiens, UniProt P05177);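 note: PubChem cytochrome P450 panel assay, CYP1A2 panel member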
T3 sequence (P05177 whole entry): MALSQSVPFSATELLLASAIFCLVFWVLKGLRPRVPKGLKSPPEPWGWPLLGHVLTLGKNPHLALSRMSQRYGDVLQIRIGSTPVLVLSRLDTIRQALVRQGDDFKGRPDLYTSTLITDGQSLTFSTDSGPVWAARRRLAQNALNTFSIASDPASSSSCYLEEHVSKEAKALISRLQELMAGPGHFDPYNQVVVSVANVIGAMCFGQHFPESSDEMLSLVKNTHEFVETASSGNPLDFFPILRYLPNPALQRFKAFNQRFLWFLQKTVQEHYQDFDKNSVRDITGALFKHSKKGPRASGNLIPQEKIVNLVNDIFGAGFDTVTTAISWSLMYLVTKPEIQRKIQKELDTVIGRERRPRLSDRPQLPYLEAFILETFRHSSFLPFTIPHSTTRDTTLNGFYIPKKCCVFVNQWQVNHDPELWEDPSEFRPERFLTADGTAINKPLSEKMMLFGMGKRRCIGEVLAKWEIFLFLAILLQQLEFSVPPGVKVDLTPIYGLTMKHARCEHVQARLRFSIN

[12] = molecular target: Voltage-dependent T-type calcium channel subunit alpha-1H (Homo sapiens, UniProt O95180); assay type: functional;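 note: channel activity triggered by adding a high calcium stimulation buffer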
Sequence of Voltage-dependent T-type calcium channel subunit alpha-1H (O95180 whole entry): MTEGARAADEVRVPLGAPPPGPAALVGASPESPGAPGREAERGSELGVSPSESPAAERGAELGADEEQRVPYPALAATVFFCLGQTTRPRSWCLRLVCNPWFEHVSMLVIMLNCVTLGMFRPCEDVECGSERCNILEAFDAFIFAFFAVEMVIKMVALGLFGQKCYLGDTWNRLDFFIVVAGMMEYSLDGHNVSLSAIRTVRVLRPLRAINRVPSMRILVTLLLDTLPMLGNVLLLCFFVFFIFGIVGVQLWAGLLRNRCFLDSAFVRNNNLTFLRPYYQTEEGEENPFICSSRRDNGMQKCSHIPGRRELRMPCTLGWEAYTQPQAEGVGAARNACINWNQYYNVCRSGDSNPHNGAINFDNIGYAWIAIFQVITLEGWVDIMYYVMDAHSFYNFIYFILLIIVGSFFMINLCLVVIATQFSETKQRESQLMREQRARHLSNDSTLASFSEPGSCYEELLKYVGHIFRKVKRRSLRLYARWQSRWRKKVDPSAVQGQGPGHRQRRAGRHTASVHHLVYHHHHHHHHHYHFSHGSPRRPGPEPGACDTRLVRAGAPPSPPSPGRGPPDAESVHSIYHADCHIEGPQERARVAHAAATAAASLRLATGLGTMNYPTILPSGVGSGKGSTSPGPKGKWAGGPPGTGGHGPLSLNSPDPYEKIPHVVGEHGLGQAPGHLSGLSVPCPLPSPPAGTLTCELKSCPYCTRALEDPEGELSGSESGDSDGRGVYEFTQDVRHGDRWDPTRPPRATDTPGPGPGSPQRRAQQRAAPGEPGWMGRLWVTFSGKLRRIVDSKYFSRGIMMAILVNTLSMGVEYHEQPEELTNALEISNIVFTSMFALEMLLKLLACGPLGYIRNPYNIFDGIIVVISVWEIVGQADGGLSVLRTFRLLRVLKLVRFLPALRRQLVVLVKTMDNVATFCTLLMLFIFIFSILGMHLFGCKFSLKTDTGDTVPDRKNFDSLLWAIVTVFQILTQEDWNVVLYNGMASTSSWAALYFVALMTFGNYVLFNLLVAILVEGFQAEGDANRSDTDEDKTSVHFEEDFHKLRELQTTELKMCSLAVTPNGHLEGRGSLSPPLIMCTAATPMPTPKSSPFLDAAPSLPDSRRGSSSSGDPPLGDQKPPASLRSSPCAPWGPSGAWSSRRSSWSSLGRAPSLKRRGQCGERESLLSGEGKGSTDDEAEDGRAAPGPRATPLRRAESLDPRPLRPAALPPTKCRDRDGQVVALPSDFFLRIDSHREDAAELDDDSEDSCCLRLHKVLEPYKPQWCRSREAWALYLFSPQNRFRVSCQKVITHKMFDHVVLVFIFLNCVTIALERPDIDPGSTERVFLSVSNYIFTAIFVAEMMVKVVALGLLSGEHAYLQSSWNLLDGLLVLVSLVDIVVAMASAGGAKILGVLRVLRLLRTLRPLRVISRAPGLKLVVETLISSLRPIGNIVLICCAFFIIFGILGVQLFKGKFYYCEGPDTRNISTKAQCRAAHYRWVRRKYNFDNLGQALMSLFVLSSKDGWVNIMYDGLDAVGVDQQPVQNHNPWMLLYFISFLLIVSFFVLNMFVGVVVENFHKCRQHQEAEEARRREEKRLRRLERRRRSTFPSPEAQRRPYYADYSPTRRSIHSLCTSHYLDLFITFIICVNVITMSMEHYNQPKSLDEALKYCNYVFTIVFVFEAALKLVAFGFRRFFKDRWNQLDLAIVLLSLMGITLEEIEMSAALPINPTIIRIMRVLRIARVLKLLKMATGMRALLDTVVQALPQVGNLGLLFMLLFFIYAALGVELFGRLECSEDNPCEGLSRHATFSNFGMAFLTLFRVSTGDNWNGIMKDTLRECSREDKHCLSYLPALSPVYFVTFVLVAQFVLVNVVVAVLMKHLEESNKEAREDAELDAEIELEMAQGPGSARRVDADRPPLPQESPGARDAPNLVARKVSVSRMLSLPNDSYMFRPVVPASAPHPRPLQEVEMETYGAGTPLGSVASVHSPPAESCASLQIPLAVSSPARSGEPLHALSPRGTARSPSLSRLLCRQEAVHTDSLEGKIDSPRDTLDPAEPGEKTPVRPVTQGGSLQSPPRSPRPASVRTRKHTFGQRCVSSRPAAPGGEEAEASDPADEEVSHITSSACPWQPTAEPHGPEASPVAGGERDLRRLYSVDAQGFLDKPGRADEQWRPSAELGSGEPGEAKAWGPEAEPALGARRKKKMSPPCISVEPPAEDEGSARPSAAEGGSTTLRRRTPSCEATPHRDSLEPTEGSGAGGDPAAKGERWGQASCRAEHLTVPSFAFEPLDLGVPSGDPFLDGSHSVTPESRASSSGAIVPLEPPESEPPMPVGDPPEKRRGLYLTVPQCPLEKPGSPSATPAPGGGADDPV

[13] = A Cell Based Secondary Assay To Explore Cytotoxicity of Compounds that Sensitize Mycobacterium Tuberculosis to Beta-Lactam Antibiotics.; assay type: functional
[14] = molecular target: T4, Polyadenylate-binding protein 1 (Homo sapiens, UniProt P11940); assay: MLLE binding blockers, Cy5 peptide tracer – biochemical, fluorescence polarization, Cy5-PAM2 peptide, secondary, miRNA deadenylation inhibitor project, dose response (AID 602260); assay type: functional; details: read-out: IC50_Mean
[15] = molecular target: T4, Polyadenylate-binding protein 1; assay: MLLE domain peptide-binding blockers, IC50 – biochemical, fluorescence polarization, FITC-PAM2 peptide, dose response (AID 602259); assay type: functional; details: read-out: IC50_Mean
[16] = luciferase reporter signal suppression in cells – H4 neuroglioma cells, luminescence, dose response (AID 1990); assay type: functional, cell-based
[17] = system: BJ; assay: BJ-TERT fibroblast viability loss – cell-based, RAS-independent, luminescence, dose response (AID 1933); assay type: functional; details: Homo sapiens
[18] = Luminescence Cell-Based Dose Response HTS to Identify Inhibitors of 5'UTR Stem-Loop Driven Prion Protein mRNA Translation in H4 Neuroglioblastoma Cells. [Related pubchem assays: 1827 (Project Summary), 1813 (Primary HTS)]; assay type: functional
[19] = alpha-synuclein stem-loop luciferase translation blockers – H4 neuroglioma cells, luminescence, confirmation (AID 1988); assay type: functional, cell-based
[20] = system: BJ; assay: cells; assay type: functional, cell-based; details: Homo sapiens
[21] = system: BJ; assay: BJ-TERT-LT-ST fibroblast viability loss – cell-based, RAS-independent, luminescence, dose response (AID 1935); assay type: functional; details: Homo sapiens;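 note: BJ fibroblasts immortalized with TERT plus LT and ST oncogenes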
[22] = DRD fibroblast viability loss – cell-based, non-viral oncogenic, luminescence, dose response (AID 1934); assay type: functional; details: Homo sapiens
[23] = molecular target: G-protein coupled receptor 55 (Homo sapiens, UniProt Q9Y2T6); assay: selective activators of receptor GPR55 – imaging, U2OS cells, beta-arrestin-GFP redistribution, primary screen (AID 1961); assay type: functional
Sequence of G-protein coupled receptor 55 (Q9Y2T6 whole entry): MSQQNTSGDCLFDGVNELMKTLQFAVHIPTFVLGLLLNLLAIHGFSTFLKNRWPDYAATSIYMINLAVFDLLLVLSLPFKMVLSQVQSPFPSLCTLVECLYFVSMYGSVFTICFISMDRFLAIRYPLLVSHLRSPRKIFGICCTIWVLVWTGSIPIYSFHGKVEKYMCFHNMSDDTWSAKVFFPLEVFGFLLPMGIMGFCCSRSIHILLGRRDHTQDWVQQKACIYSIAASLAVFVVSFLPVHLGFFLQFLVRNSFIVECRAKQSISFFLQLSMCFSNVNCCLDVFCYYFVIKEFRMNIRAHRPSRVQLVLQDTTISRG

[24] = system: Vero; assay: cells; assay type: functional, cell-based; details: Chlorocebus sabaeus
[25] = system: Vero; assay: cells; assay type: functional; details: Chlorocebus sabaeus
[26] = viability of uninfected HEp-2 cells – cell-based, HTS, cytotoxicity control for RSV inhibitor project, dose response (AID 2410); assay type: functional; details: human respiratory syncytial virus
[27] = cells
[28] = molecular target: T5, fMet-Leu-Phe receptor (Homo sapiens, UniProt P21462); assay: formyl peptide receptor binders – dose response (AID 519); assay type: functional
T5 sequence (P21462 whole entry): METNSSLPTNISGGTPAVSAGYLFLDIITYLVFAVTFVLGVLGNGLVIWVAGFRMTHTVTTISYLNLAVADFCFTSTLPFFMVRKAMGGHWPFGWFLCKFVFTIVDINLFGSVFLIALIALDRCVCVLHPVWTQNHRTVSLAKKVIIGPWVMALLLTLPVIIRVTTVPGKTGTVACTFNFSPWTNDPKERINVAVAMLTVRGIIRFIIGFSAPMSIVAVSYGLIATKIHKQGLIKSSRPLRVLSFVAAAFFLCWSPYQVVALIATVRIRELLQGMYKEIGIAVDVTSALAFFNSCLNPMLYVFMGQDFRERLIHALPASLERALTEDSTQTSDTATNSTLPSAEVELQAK

[29] = molecular target: Cytochrome P450 2D6 (Homo sapiens, UniProt P10635);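 note: CYP2D6 member of a cytochrome P450 panel assay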

Cc1ccc(C(=O)/C=C\C(=O)c2ccc(C)cc2)cc1
EC50 [1]: 1.97 µM (active) | EC50 [2]: > 60 µM (not active) | IC50 [3]: 6.51 µM (active) | IC50 [4]: 8.75 µM (active)

Cc1sc(-n2c(C)cc(/C=N/n3cnnc3)c2C)c(C#N)c1C
EC50 [5]: > 79.4 µM (not active) | EC50 [6]: > 79.4 µM (not active) | EC50 [7]: > 79.4 µM (not active)

O=C(O)c1cccc(N2C(=O)c3ccc4c5c(ccc(c35)C2=O)CC4)c1
IC50 [8]: > 100 µM (not active)

O=S(=O)(C=C(c1ccccc1)c1ccccc1)c1ccccc1
EC50 [9]: 2.82 µM (active) | EC50 [10]: > 29.9 µM (not active) | AC50 [11]: 28.2 µM (inconclusive)

CCCn1c(NCc2cc(OC)ccc2OC)nc2ccccc21
EC50 [12]: 5.97 µM (active)

Cc1nc(SCC(=O)Nc2ccc(F)cc2)c(C#N)c(C)c1CC(=O)c1ccc(Br)cc1
EC50 [5]: 9.89 µM (active) | EC50 [6]: 13.8 µM (not active) | EC50 [7]: 24.8 µM (not active) | CC50 [13]: 9.4 µM (active)

Cc1ccc(N2C(=O)C3CCC(c4ccccc4)CC3C2=O)cc1 (stereo not drawn)
EC50 [5]: > 79.4 µM (not active) | EC50 [6]: > 79.4 µM (not active) | EC50 [7]: > 79.4 µM (not active)

CCc1ccc(C(=O)NCc2ccc(Cl)cc2Cl)cc1
IC50 [3]: 61 µM (active) | IC50 [4]: 33.9 µM (active)

CCOC(=O)CSc1nc2c(sc(=S)n2-c2ccccc2OC)c(=O)n1Cc1ccco1
EC50 [9]: 0.37 µM (active) | EC50 [10]: > 29.9 µM (not active) | IC50 [14]: > 66 µM (inactive) | IC50 [15]: > 66 µM (inactive)

Cc1ccc(CNC(=O)C(=O)NCC2OCCN2S(=O)(=O)c2ccc3c(c2)OCCO3)cc1 (stereo not drawn)
EC50 [12]: 4.92 µM (active)

CC(=O)Nc1cccc(Oc2ncnc3scc(-c4ccc(C(C)C)cc4)c23)c1
EC50 [16]: 21.7 µM (active) | EC50 [17]: 42.6 µM (active) | EC50 [18]: > 120 µM (not active) | EC50 [19]: 18.2 µM (active) | EC50 [20]: 61.5 µM (active) | EC50 [21]: > 150 µM (inconclusive) | EC50 [22]: 31.3 µM (active) | EC50 [23]: 6.01 µM (active) | IC50 [24]: 17.7 µM (active) | CC50 [25]: > 25 µM (active)

Cn1cccc1Cc1nnc(SCC(=O)Nc2cccc(Cl)c2)n1-c1ccc(F)cc1
EC50 [12]: 1.24 µM (active)

O=C(NC1=NCCS1)c1cc(-c2ccc(-c3ccccc3)cc2)nc2ccccc12
CC50 [26]: 21.9 µM (active) | IC50 [27]: 21.7 µM (active)

Cc1nn2c(O)c3c(nc2c1-c1cccc2ccccc12)CCC3
EC50 [23]: 8.52 µM (active) | Ki [28]: 53.7 µM (inactive) | AC50 [29]: 35.5 µM (inconclusive) | AC50 [11]: 25.1 µM (inconclusive)
